How the values were obtained:
Test in all cases: relative viability (nuclei count vs DMSO), 5 days (fraction); higher = more cells survive
[1] = compound: C1COCCN1C2=NC(=NC3=C2OC4=C3C=CC=N4)C5=CC(=CC=C5)NC(=O)C6=CN=C(C=C6)N + COc1cccc2cc(-c3nc([C@H]4CC[C@H](C(=O)O)CC4)n4ncnc(N)c34)[nH]c12 [OSI-027] (partner 0.5 µM)
Outline: (§1)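 Cells from lung cancer lines were seeded into 1536-well plates and, one day later, dosed by pin tool. Treatments were either a single drug or a fixed dose of an anchor drug with five library-drug doses (not always all listed) in √10 steps. After 5 days, nuclei were stained in a one-step fixation (final 0.05% Triton X-100, 1% formaldehyde, 1 ug/ml Hoechst) and counted on 4× images, and relative viability is the treated-to-vehicle nuclei ratio, as the median of duplicate plates.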

SGI-1776 + AZD7762 = compound: CN1CCC(CNc2ccc3ncc(-c4cccc(OC(F)(F)F)c4)n3n2)CC1 [SGI-1776] + NC(=O)Nc1cc(-c2cccc(F)c2)sc1C(=O)N[C@H]1CCCNC1 [AZD7762] (partner 0.2 µM)
Outline: as §1

Entinostat + OSI-027 = compound: Nc1ccccc1NC(=O)c1ccc(CNC(=O)OCc2cccnc2)cc1 [Entinostat] + COc1cccc2cc(-c3nc([C@H]4CC[C@H](C(=O)O)CC4)n4ncnc(N)c34)[nH]c12 [OSI-027] (partner 0.5 µM)
Outline: as §1

Entinostat + Phenformin = compound: Nc1ccccc1NC(=O)c1ccc(CNC(=O)OCc2cccnc2)cc1 [Entinostat] + N=C(N)NC(=N)NCCc1ccccc1 [Phenformin] (partner 250 µM)
Outline: as §1

Row | Cell Line | relative viability ([1]; first compound 0.02 µM) | relative viability ([1]; first compound 0.06325 µM) | relative viability ([1]; first compound 0.2 µM) | relative viability ([1]; first compound 0.6325 µM) | relative viability ([1]; first compound 2 µM) | relative viability (SGI-1776 + AZD7762; first compound 0.08 µM) | relative viability (SGI-1776 + AZD7762; first compound 0.8 µM) | relative viability (SGI-1776 + AZD7762; first compound 2.53 µM) | relative viability (SGI-1776 + AZD7762; first compound 8 µM) | relative viability (Entinostat + OSI-027; first compound 0.02 µM) | relative viability (Entinostat + OSI-027; first compound 0.06325 µM) | relative viability (Entinostat + OSI-027; first compound 0.2 µM) | relative viability (Entinostat + OSI-027; first compound 0.6325 µM) | relative viability (Entinostat + OSI-027; first compound 2 µM) | relative viability (Entinostat + Phenformin; first compound 0.02 µM) | relative viability (Entinostat + Phenformin; first compound 0.06325 µM) | relative viability (Entinostat + Phenformin; first compound 0.2 µM) | relative viability (Entinostat + Phenformin; first compound 0.6325 µM) | relative viability (Entinostat + Phenformin; first compound 2 µM)
1 | NCI-H2342 | 0.666 | 0.603 | 0.661 | 0.615 | 0.649 | 0.57 | 0.625 | 0.442 | 0.517 | 0.651 | 0.587 | 0.629 | 0.598 | 0.524 | 0.6 | 0.639 | 0.518 | 0.584 | 0.468
2 | NCI-H358 | – | 0.832 | 0.702 | 0.601 | 0.443 | 0.465 | 0.467 | 0.456 | 0.348 | 0.879 | 0.992 | 0.796 | 0.496 | 0.169 | 0.335 | 0.546 | 0.506 | 0.245 | 0.108
3 | NCI-H1755 | 0.797 | 0.738 | 0.797 | 0.622 | 0.558 | 0.459 | 0.575 | 0.463 | 0.378 | 0.693 | 0.776 | 0.684 | 0.566 | 0.309 | 0.605 | 0.613 | 0.569 | 0.513 | 0.349
4 | A-427 | 0.407 | 0.416 | 0.469 | 0.399 | 0.394 | 0.685 | 0.681 | 0.686 | 0.627 | 0.505 | 0.489 | 0.403 | 0.395 | 0.343 | 0.365 | 0.327 | 0.368 | 0.318 | 0.266
5 | NCI-H838 | 0.348 | 0.381 | 0.348 | 0.31 | 0.278 | 0.944 | 0.961 | 0.932 | 0.916 | 0.46 | 0.489 | 0.474 | 0.487 | 0.318 | 0.706 | 0.852 | 0.677 | 0.426 | 0.198
6 | LOU-NH91 | 0.699 | 0.686 | 0.739 | 0.68 | 0.657 | 0.797 | 0.793 | 0.7 | 0.593 | 0.719 | 0.761 | 0.708 | 0.652 | 0.585 | 0.746 | 0.773 | 0.75 | 0.706 | 0.55
7 | BEN | 0.283 | 0.297 | 0.295 | 0.274 | 0.389 | 0.829 | 0.735 | 0.673 | 0.524 | 0.271 | 0.353 | 0.323 | 0.302 | 0.217 | 0.247 | 0.267 | 0.258 | 0.238 | 0.254
8 | NCI-H2085 | 0.792 | 0.829 | 0.62 | 0.46 | 0.44 | 1.08 | 1.06 | 0.978 | 0.956 | 0.737 | 0.625 | 0.676 | 0.334 | 0.293 | 0.716 | 0.774 | 0.706 | 0.461 | 0.375
9 | LCLC-103H | 0.409 | 0.419 | 0.446 | 0.452 | 0.335 | 0.9 | 0.776 | 0.675 | 0.729 | 0.473 | 0.555 | 0.504 | 0.393 | 0.279 | 0.36 | 0.379 | 0.331 | 0.265 | 0.229
10 | ABC-1 | 0.462 | 0.451 | 0.461 | 0.368 | 0.407 | 0.801 | 0.648 | 0.85 | 0.83 | 0.446 | 0.524 | 0.544 | 0.351 | 0.247 | 0.215 | 0.267 | 0.263 | 0.268 | 0.215
11 | NCI-H650 | 0.545 | 0.511 | 0.488 | 0.474 | 0.478 | 1.21 | 0.941 | 0.994 | 1.17 | 0.614 | 0.614 | 0.586 | 0.489 | 0.261 | 0.491 | 0.466 | 0.431 | 0.455 | 0.318
12 | NCI-H1792 | 0.659 | 0.684 | 0.753 | 0.679 | 0.42 | 0.587 | 0.786 | 0.768 | 0.438 | 0.752 | 0.753 | 0.609 | 0.569 | 0.43 | 0.318 | 0.441 | 0.315 | 0.101 | 0.17
13 | EPLC-272H | 0.311 | 0.305 | 0.289 | 0.247 | 0.328 | 0.188 | 0.224 | 0.364 | 0.252 | 0.285 | 0.359 | 0.314 | 0.245 | 0.214 | 0.297 | 0.303 | 0.276 | 0.175 | 0.217
14 | EKVX | 0.626 | 0.484 | 0.888 | 0.673 | 0.558 | 0.699 | 0.713 | 0.638 | 0.646 | 0.751 | 0.738 | 0.805 | 0.511 | 0.318 | 0.225 | 0.243 | 0.227 | 0.222 | 0.205
15 | NCI-H1666 | 0.949 | 0.816 | 0.79 | 0.777 | 0.546 | 0.945 | 0.873 | 0.862 | 0.834 | 0.906 | 0.897 | 0.859 | 0.618 | 0.606 | 0.56 | 0.609 | 0.581 | 0.497 | 0.443
16 | HCC-15 | 0.709 | 0.702 | 0.644 | 0.506 | 0.456 | 1.05 | 1.12 | 1.34 | 1.21 | 0.669 | 0.617 | 0.583 | 0.347 | 0.239 | 0.491 | 0.461 | 0.453 | 0.246 | 0.175
17 | LCLC-97TM1 | 0.525 | 0.519 | 0.485 | 0.507 | 0.353 | 0.302 | 0.313 | 0.204 | 0.304 | 0.583 | 0.462 | 0.51 | 0.408 | 0.43 | 0.423 | 0.376 | 0.392 | 0.465 | 0.395

From the supplement of paper PMC10307832
